Experiments:
C2C12 myoblast cell line [1] = experiment: Immunocytochemistry of MYH3 expression in differentiating C2C12 cells; type: cell-based, mouse; conditions: 0.2 μM, third day of differentiation; FIG. 2
Method: (§1) The DMSO, cetylpyridinium chloride, butylpyridinium chloride, and dodecylpyridinium chloride used in the experiment were all purchased from Sigma-Aldrich.
C2C12 cells on a cover glass coated with 0.1% gelatin were differentiated for 3 days. After washing the cells with 1×PBS, fixing with 3.7% paraformaldehyde at room temperature for 15 minutes, and washing 3 times with 1×PBS, a permeabilization buffer was added, and the cells were reacted at room temperature for 15 minutes. After washing the cells three times with 1×PBS again, the cells were reacted for 30 minutes with PBST (blocking buffer, PBS containing 0.5% Tween 20) containing 1% BSA to deter any unspecific binding of antibodies. The primary antibody against MYH3 (SC-20641, Santa Cruz Biotechnology) was added to the blocking buffer by diluting at a ratio of 1:500 and was reacted at room temperature for 1 hour. After washing the cells three times with 1×PBS, the secondary antibody (Goat anti-Rabbit IgG-HRP), which was diluted in the blocking buffer at a ratio of 1:5000, was added and reacted at room temperature for 1 hour, and the cells were washed three times with 1×PBS. The cover glass was placed on a slide glass, photographs were taken with a fluorescence microscope, and the results were analyzed.

[2] = tested on: C57BL/6 male mice, muscle immobilization model; experiment: Grip strength test after tibialis anterior muscle immobilization; type: in vivo, mouse; conditions: compared to control group
Method: (§2) As experimental animals, 20 of C57BL/6 male mice aged 6 weeks were used. The experimental animals were assigned to two groups: a control group, to which 10 mice having similar weights were assigned without administration, and an experimental group, to which 10 mice having similar weights were assigned with butylpyridinium chloride administration.
(§3) It was also administered continuously during the muscle immobilization periods described below.
(§4) In this experiment, as a method for inducing muscle regeneration in mice, the tibialis anterior muscle immobilization protocol was used. In this method, the thighs and shins of one leg of a mouse were fixed using a medical staple so that legs were immobilized, and after leaving the immobilized mouse alone for 3 days, the fixed leg was released. The principle used in this method is that when a leg is placed in a cast and the muscle of the leg is immobilized (i.e., not frequently used), the muscle is lost. […]
Grip strength was measured using a grip strength measuring instrument made by the company BIOSEB. The mouse was placed on a wire mesh attached to the instrument panel that can monitor the strength of a force, and the force of holding the wire mesh by the mouse while the tail was gripped downward was measured. […]

[3] = tested on: C57BL/6 male mice, muscle immobilization model; experiment: Treadmill test after tibialis anterior muscle immobilization; type: in vivo, mouse; conditions: compared to control group
Method: as §2, §3
as §4, with “lost. It is a method for inducing muscle regeneration, in which, after the muscle loss due to immobilizing the shin muscle, the muscle is regenerated by releasing the immobilized muscle so that the muscle may move again.” for “lost.”

C2C12 myoblast cell line [4] = experiment: Western blot of MYH3 protein in differentiating C2C12 cells; type: cell-based, mouse; conditions: 0.2 μM every day, third day of differentiation, vs DMSO control; FIG. 3
Method: The cells were harvested on the third day of differentiation and centrifuged at 1200 rpm for 3 minutes. After adding 100 μL of a lysis buffer to the cells, the cells were sonicated and centrifuged at 3000 rpm for 10 minutes to obtain a water-soluble protein, and after adding a 4× sample buffer, the cells were reacted in boiling water for 5 minutes.
10 μg of the protein was loaded on a 12% SDS-PAGE gel and developed, and then was transferred onto a nitrocellulose membrane. The nitrocellulose membrane was blocked in 5% skim milk for 1 hour at room temperature and washed 5 times with TTBS (0.03% Tween 20, Tris 2.42 g, NaCl 9 g, pH 7.4, and 1 L) for 5 minutes each. The primary antibody was diluted in TTBS containing 5% skim milk at a ratio of 1:500 and was added to the nitrocellulose membrane, and after reacting at room temperature for 2 hours, the nitrocellulose membrane was again washed 5 times with TTBS for 5 minutes each. The secondary antibody was diluted at a ratio of 1:5000 again in TTBS containing 5% skim milk and added, was reacted at room temperature for 2 hours, was washed with TTBS 5 times for 5 minutes each, and ECL (Enhanced Chemiluminescent solution, Pierce) was added. Thereafter, the membrane was exposed to X-ray film, and the amount of the protein was measured.

[5] = tested on: C57BL/6 male mice, muscle immobilization model; experiment: Rota-rod test after tibialis anterior muscle immobilization; type: in vivo, mouse; conditions: compared to control group
Method: as §2, §3
as §4, with “lost. It is a method for inducing muscle regeneration, in which, after the muscle loss due to immobilizing the shin muscle, the muscle is regenerated by releasing the immobilized muscle so that the muscle may move again.” for “lost.”

C2C12 myoblast cell line [6] = experiment: Myotube formation of C2C12 cells observed under phase contrast microscopy; type: cell-based, mouse; conditions: 0.2 μM, 3 days differentiation, compared to DMSO control; FIG. 1
Method: C2C12 is a cell line of myoblasts obtained from a C3H strain live mouse, and it is widely used in the differentiation studies of myoblasts.
The above-described C2C12 cells were cultured in each of general media for cell growth and media for differentiation. In the normal cell growth media (GM), DMEM supplemented with 10% fetal bovine serum was used, and in the differentiation media (DM), DMEM containing 2% horse blood serum was used.
as §1

[7] = tested on: mouse immobilization model; experiment: Motor ability by rota-rod and treadmill tests after concentration-dependent oral administration; conditions: FIG. 10
Method: The exercise was applied using a rota-rod device consisting of 6 partitions (with a diameter of 7 cm, at an interval of 15 cm) and a rotatable cylindrical bar (with a height of 60 cm).
For the treadmill used in this test, a self-manufactured device was used. After each mouse was placed in an isolated lane and made to run, the time from the starting point to a point when the mouse was exhausted (i.e., judged to have no will to run) was recorded. […] In this experiment, repeated experiments on the same mouse could not be performed. The mouse was placed on the device and was made to run at a speed of 8 rpm, the speed was accelerated by 2 rpm every 10 minutes up to a speed of 18 rpm, and starting with no inclination, the inclination was increased by 5 degrees every 30 minutes.

[8] = tested on: mouse immobilization model; experiment: Skeletal muscle mass (muscle weight divided by body weight) in mouse immobilization model; type: in vivo; conditions: oral, concentration-dependent, 7 days after inducing regeneration; FIG. 11
Source text: Afterwards, an increase in the skeletal muscle mass due to the drug was confirmed by dividing the weight of the separated muscle by the body weight of the mouse (FIG. 11).

[9] = tested on: mouse immobilization model; experiment: Muscle fiber cross-sectional area (Laminin staining of TA muscle) in mouse immobilization model; conditions: 1.7 mg/kg (mouse) oral, compared to control group; FIG. 12
Method: The separated muscle was cut to a thickness of 5 μM and stained by immunofluorescence using a Laminin antibody. […] By using the Laminin antibody, sections of the skeletal muscle fibers formed in the basement membrane were stained, and the cross-sectional area of the muscle fibers was measured (FIG. 12).

Compound | expression of MYH3 (immunocytochemistry) (C2C12 myoblast cell line [1]) | amount of MYH3 protein (Western blot) (C2C12 myoblast cell line [4]) | formation of myotubes (differentiation promoting effect) (C2C12 myoblast cell line [6]) | also measured
CCCC[n+]1ccccc1 [butylpyridinium chloride] | very high | significantly increased | more myotubes were formed | range of decrease in grip strength after muscle immobilization ([2]; 15 mg/kg oral, 3 days immobilization, tested 7 days after release, FIG. 4): reduced; endurance (treadmill) ([3]; 15 mg/kg oral, after muscle immobilization, FIG. 6): improved; motor ability to maintain the sense of balance (rota-rod) ([5]; 15 mg/kg oral, after muscle immobilization, FIG. 5): improved
CCCCCCCCCCCCCCCC[n+]1ccccc1 [cetylpyridinium bromide] |  | increased |  | 
CCCCCCCCCCCCCCCC[n+]1ccccc1 [cetylpyridinium chloride] | very high | significantly increased | more myotubes were formed | motor ability (rota-rod and treadmill tests) [7]: improved; range of decrease in grip strength after muscle immobilization ([2]; 50 mg/kg oral for 2 weeks, FIG. 7): reduced; endurance (treadmill) ([3]; 50 mg/kg oral for 2 weeks, FIG. 9): improved; skeletal muscle mass of the EDL muscle [8]: increased; skeletal muscle mass of the gastrocnemius muscle [8]: increased; cross-sectional area of the muscle (TA) [9]: increased; motor ability to maintain the sense of balance (rota-rod) ([5]; 50 mg/kg oral for 2 weeks, FIG. 8): improved
CCCCCCCCCCCC[n+]1ccccc1 [dodecylpyridinium chloride] | very high | significantly increased | more myotubes were formed | 
CC[n+]1ccccc1.[Cl-] [ethylpyridinium chloride] |  | did not increase |  | 

Source: patent US9949960B2, “Pharmaceutical composition for preventing or treating muscle weakness-related diseases, containing butylpyridinium or derivative thereof” (KOREA RESEARCH INSTITUTE OF BIOSCIENCE AND BIOTECHNOLOGY, priority 2014, dated 2018)
